US20170119806A1, “[…] LACTONE DERIVATIVES AND METHODS OF MAKING AND USING THEREOF” (OHIO STATE INNOVATION FOUNDATION, priority 2014, published 2017)
Entries after “also recorded” stand apart in the source; their conditions may differ.

Tests used:
topo IIα = topo IIα (Homo sapiens, UniProt P11388); assay: Topoisomerase II assay (DNA cleavage/relaxation); assay type: biochemical; settings: 100 μM test compound
Text: The formation of linear DNA was detected by separating the SDS-treated reaction products using ethidium bromide gel electrophoresis and quantified by accounting for the relationship between fluorescence and relative band intensity for open circular (OC), linear (LNR), supercoiled (SC), and relaxed (RLX) configurations of DNA.
Topoisomerase II Assay. […] The formation of linear DNA was detected by separating the SDS-treated reaction products using ethidium bromide gel electrophoresis by a modification of a previously described procedure (Hasinoff B B et al. Mol. Pharmacol. 2005, 67, 937-947). In this system, topo II-mediated catalytic conversion of supercoiled pBR322 DNA to the “relaxed” form of plasmic' DNA can also be observed. A 20 μL cleavage assay reaction mixture contained 250 ng topo IIα protein, 160 ng pBR322 plasmid DNA (NEB, Ipswich, Mass.), 1.0 mM ATP in assay buffer (10 mM Tris-HCl (pH 7.5), 50 mM KCl, 50 mM NaCl, 0.1 mM EDTA, 5 mM MgCl2, 2.5% glycerol), and 100 μM of test compounds or DMSO solvent, as indicated. Assay buffer (17 μL) and test compound/DMSO (1 μL) were mixed and allowed to sit at room temperature for 30 min after which 2 μL of topo IIα was added to initiate the reaction. Tubes were incubated at 37° C. for 15 min, and then quenched with 1% (v/v) SDS/10 mM disodium EDTA/200 mM NaCl. The mixture was treated subsequently with 0.77 mg/mL proteinase K (Sigma) at 55° C. for 60 min to digest the protein, and DNA bands were separated by electrophoresis (18 h at 2 V/cm) on an agarose gel (1.3% w/v) containing 0.7 μg/mL ethidium bromide in TAE buffer pH 8.0 (40 mM Tris base, 0.114% (v/v) glacial acetic acid, 2 mM EDTA). The DNA in the gel was imaged by its fluorescence on a Chemi-Doc XRS+ imager (Bio-Rad, Hercules, Calif.). Linear DNA was quantified by accounting for the relationship between fluorescence and relative band intensity for open circular (QC), linear (LNR), supercoiled (SC), and RLX (relaxed) configurations of DNA (Projan S J et al. Plasmid 1983, 9, 182-190), then calculating % of LNR from the total DNA content in each lane.

CD4+ or CD8+ T cells = assay: T cell IFN-γ production (intracellular flow cytometry in PBMCs); assay type: cell-based, human; settings: 10 μM PL-C, 18 h, with IL-12 or IL-15; listed as PL-C
Experimental: (A) Human […] were treated with DMSO vehicle control or 10 μM PL-C for 18 hours in the presence of IL-12 (10 ng/mL) or IL-15 (100 ng/mL), as described in FIG. 37C. The cells were harvested for intracellular flow cytometry to determine the frequency of IFN-γ^+ cells in CD56^−CD3^+[…] or CD56^−CD3^+CD8^+T. Representative data from 1 out of 5 donors are shown. (B) Purified primary NK cells were treated with IL-12 (10 ng/mL) or IL-15 (100 ng/mL) with or without 10 μM PL-C for 8 hours and were sequentially co-cultured with […] labeled ARH-77 cells at various effector/target cell ratios for additional 4 hours. ^51Cr release was measured by a TopCount counter. Data shown are the means of 3 donors. […] Error bars represent S.D. (C) Purified primary NK cells were treated with 10 μM PL-C in the presence of IL-12 (10 ng/mL) (top) or IL-15 (100 ng/mL) (bottom) for 12 hours, and cell pellets were harvested for detecting granzyme A (GZMA), granzyme B (GZMB), perforin (PRF1) and Fas (Fasl) mRNA expression level by real-time RT-PCR. Data shown are the means of 6 donors. p>0.05, vehicle control versus PL-C in all panels. Error bars represent S.D.
Intracellular flow cytometry. […] Data were acquired using an LSRII (BD Biosciences) flow cytometer and analyzed using FlowJo software (Tree Star, Ashland, Oreg.).

[1] = system: HT-29 human colon cancer cells
Experimental: The cytotoxicity of the test compounds was screened against HT-29 cells by a previously reported procedure (Ren Y et al. J. Nat. Prod 2011, 74, 1117-1125). Paclitaxel and etoposide were used as positive controls.
All arylnaphthalene lignans isolated from P. poilanet in the present study and their semi-synthetic analogues were evaluated for their cytotoxicity against HT-29 human colon cancer cells, using paclitaxel as the positive control (Table 6) (Ren Y et al. J. Nat. Prod 2011, 74, 1117-1125).

topo IIα, sequence (P11388 whole entry): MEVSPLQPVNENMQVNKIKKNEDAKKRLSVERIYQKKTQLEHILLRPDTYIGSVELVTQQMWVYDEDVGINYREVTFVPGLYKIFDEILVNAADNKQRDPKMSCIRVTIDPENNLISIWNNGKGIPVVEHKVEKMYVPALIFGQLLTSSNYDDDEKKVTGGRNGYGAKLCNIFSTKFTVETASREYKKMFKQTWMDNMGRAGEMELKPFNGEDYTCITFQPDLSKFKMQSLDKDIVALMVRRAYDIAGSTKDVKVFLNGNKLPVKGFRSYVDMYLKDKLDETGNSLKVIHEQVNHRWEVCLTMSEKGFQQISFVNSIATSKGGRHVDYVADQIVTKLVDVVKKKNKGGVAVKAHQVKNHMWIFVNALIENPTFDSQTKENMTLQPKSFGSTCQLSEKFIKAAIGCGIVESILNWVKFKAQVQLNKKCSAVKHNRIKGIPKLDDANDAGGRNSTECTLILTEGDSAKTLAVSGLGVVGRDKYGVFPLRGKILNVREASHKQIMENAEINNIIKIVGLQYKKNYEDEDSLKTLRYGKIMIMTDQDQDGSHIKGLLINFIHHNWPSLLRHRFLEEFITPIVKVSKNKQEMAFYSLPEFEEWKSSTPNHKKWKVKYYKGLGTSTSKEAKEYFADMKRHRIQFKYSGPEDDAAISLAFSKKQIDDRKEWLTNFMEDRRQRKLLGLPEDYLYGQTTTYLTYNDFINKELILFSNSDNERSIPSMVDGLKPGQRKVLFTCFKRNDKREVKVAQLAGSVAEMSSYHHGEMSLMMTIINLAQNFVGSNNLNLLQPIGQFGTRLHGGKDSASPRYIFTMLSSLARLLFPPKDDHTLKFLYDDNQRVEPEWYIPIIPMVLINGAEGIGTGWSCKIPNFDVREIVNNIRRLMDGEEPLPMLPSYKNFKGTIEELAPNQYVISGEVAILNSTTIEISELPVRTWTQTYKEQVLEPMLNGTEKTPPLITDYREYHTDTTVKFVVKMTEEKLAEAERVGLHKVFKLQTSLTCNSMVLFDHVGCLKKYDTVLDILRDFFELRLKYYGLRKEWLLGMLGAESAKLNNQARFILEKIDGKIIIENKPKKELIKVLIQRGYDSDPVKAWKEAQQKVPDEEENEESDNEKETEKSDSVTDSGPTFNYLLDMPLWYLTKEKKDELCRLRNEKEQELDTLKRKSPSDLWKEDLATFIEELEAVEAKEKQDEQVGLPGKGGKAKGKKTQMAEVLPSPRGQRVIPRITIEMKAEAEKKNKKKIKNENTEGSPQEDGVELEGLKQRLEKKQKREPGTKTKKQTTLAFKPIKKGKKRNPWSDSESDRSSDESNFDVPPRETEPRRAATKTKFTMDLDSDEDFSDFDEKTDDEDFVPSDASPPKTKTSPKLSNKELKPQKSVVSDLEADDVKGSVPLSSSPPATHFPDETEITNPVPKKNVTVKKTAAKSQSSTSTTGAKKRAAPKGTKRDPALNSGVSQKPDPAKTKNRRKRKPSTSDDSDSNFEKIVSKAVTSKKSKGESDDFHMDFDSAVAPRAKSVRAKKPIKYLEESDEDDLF

For `COc1cc2c(OC3OCC(O)C(O)C3O)c3c(c(-c4ccc5c(c4)OCO5)c2cc1OC)C(=O)OC3` (stereo not drawn) [Compound 4, Phyllanthusmin C], the “topo IIα inhibition (in words)” value (topo IIα) was “not topo Ha inhibitors; also recorded: not topo IIα inhibitors”, the “T cell IFN-γ production” value (CD4+ or CD8+ T cells) was “little or no; also recorded: negligibly activated T cell IFN-γ production; also recorded: few, if any” and the “cytotoxicity toward HT-29 cells (in words)” value [1] was “cytotoxic”.
